Measured values published in PMC6273807, “Identification of Selective ERRγ Inverse Agonists” (Molecules, 2016).

How the values were obtained:
[1] = Metabolic stability assay in liver microsomes (mouse); format: in vitro ADME; settings: 1 μM, 30 min, 37 °C, NADPH
Method: (§1) The metabolic stability assay was performed by incubation of human and selected animal liver microsomes (most often dog, rat and mouse), at 37 °C with a test compound at a final concentration of 1 μM, in the presence of 0.5 mg/mL microsomal protein and NADPH regeneration system, in a total volume of 100 μL of 100 mM phosphate buffer, pH 7.4. The incubation was started by the addition of NADPH regeneration system and terminated with adding 40 μL of ice-cold acetonitrile at 0 and 30 min. […] Incubations terminated prior to addition of NADPH regeneration system (time point 0 min) were used as standards, defined as 100%. Percent of the parent compound remaining was calculated by comparing peak areas.

[2] = Metabolic stability assay in liver microsomes (rat); format: in vitro ADME; settings: 1 μM, 30 min, 37 °C, NADPH
Method: as §1

[3] = target: T1, CYP1A2 (Homo sapiens, UniProt P05177); experiment: CYP inhibition assay, cocktail, human liver microsomes (phenacetin O-deethylase); format: in vitro ADME; settings: 10 μM, activity in presence of inhibitor as % of control
T1 sequence (P05177 1-516): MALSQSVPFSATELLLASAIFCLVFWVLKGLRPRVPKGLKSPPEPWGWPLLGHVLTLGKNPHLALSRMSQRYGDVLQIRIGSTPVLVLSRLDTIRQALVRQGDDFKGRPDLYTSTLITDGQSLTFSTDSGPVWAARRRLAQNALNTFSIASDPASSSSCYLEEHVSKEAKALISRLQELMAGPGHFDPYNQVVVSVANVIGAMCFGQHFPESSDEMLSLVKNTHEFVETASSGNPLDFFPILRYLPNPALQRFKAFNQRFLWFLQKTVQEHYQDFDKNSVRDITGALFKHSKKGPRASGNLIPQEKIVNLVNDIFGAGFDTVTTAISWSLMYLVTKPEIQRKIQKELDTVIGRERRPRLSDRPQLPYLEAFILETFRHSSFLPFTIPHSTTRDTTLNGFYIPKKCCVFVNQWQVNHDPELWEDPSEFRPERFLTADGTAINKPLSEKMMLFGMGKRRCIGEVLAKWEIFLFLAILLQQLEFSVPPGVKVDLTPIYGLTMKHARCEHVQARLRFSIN

[4] = Metabolic stability assay in liver microsomes (dog); format: in vitro ADME; settings: 1 μM, 30 min, 37 °C, NADPH
Method: as §1

[5] = target: CYP2D6 (Homo sapiens, UniProt P10635); experiment: CYP inhibition assay, cocktail, human liver microsomes (dextromethorphan O-demethylase); format: in vitro ADME; settings: 10 μM, activity in presence of inhibitor as % of control
[6] = Metabolic stability assay in liver microsomes (human); format: in vitro ADME; settings: 1 μM, 30 min, 37 °C, NADPH
Method: as §1

[7] = test system: CYP3A; experiment: CYP inhibition assay, cocktail, human liver microsomes (midazolam 1'-hydroxylase); format: in vitro ADME; settings: 10 μM, activity in presence of inhibitor as % of control
[8] = target: CYP2C9 (Homo sapiens, UniProt P11712); experiment: CYP inhibition assay, cocktail, human liver microsomes (tolbutamide 4-hydroxylase); format: in vitro ADME; settings: 10 μM, human liver microsomes; activity in presence of inhibitor as % of control
[9] = target: CYP2C19 (Homo sapiens, UniProt P33261); experiment: CYP inhibition assay, cocktail, human liver microsomes (S-mephenytoin 4-hydroxylase); format: in vitro ADME; settings: 10 μM, activity in presence of inhibitor as % of control
[10] = target: T2, ERRγ (Homo sapiens, UniProt P62508); experiment: TR-FRET (LanthaScreen) ERRγ binding assay; settings: Table 1 screening, 2-fold serial dilution from 10 μM; for IC50: read-out: ERRγ, IC50 (binding inhibition of ERRγ binding activity)
T2 construct: purchased Life Technologies
T2 sequence (P62508 233-457 limits assumed): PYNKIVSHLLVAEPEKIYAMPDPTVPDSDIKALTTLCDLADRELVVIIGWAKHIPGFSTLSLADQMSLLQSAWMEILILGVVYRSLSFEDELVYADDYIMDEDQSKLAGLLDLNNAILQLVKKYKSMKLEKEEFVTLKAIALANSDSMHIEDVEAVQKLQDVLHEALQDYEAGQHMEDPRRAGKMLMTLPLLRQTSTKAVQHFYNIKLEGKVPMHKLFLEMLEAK
Method: Initials creening was conducted using a well established TR-FRET based ERRγ binding assay as described in the Experimental section at a concentration of 10 μM. Serial dilutions of the synthesized compounds were used to calculate IC50 values for the binding affinity with ERRγ.
ERRγ binding assay was conducted with Lantascreen assay system (Life Technologies, Grand Island, NY, USA), which was based on TR-FRET, followed by manufacturer’s instruction. Briefly, compounds were serially diluted with 2-fold staring from 10 μM and 10 μL of each diluent was added in 384 well plate. Then, GST-conjugated ERRγ LBD (ligand-binding domain) was added to be 5 nM. Next, the mixture of fluorescien-conjugated coactivator PGC1a (final concentration to be 500 nM) and Tb-a-GST antibody (final concentration to be 5 nM) was added. The reaction mixture was incubated at rt in dark state for 1 h.

[11] = target: T3, ERRγ (Homo sapiens, UniProt P62508); experiment: ERRγ functional assay: GAL4-ERRγ luciferase reporter gene in AD293 cells; format: cell-based; settings: for ERRγ functional activity in the cellular system (in words): 10 μM, reporter-gene assay, compared with control ligand 4; for inhibition at 10 µM: AD293, 24 h, screening concentration of 10 μM, read-out: transcriptional repression
T3 sequence (P62508 233-458 limits assumed): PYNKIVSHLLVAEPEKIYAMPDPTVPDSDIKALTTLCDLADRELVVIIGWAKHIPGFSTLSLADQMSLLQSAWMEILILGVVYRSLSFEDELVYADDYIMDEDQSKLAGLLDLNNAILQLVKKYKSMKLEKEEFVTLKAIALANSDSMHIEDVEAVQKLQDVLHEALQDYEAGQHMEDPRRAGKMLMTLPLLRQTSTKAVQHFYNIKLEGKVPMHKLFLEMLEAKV
Method: Along with the binding assay campaign, functional activity was determined in order to validate the utility of the binding affinity in a cellular context as described in the Experimental.
Figure 2 Cell based reporter-gene assay screening of 16 analogs ERRγ binding activity in cell was measured by luciferase activity using co-transfection system with GAL4-ERRγ and pFR-luciferase reporter gene.
AD293 cells were cultured in Dulbecco’ modified Eagle medium (DMEM) High glucose supplemented with 0.5% FBS (Hyclone, Logan, UT, USA). After 24 h, culture media was changed with DMEM High glucose containing 10% FBS. DNA constructs, which includes pCMX-Gal4-ERRγ, pFR-luciferase reporter plasmid, pCMV-β-gal were transiently transfected into AD293 cells using TransIT-LT1 transfection reagent (Mirus, Madison, WI, USA) for 24 h. Then, transfected cells were treated with compounds for 24 h and harvested for detection of luciferase activity and β-gal activity. All cells were incubated at 37 °C under 5% CO2 in a humidified incubator [5].

Chain of CYP2C9 (P11712 whole entry): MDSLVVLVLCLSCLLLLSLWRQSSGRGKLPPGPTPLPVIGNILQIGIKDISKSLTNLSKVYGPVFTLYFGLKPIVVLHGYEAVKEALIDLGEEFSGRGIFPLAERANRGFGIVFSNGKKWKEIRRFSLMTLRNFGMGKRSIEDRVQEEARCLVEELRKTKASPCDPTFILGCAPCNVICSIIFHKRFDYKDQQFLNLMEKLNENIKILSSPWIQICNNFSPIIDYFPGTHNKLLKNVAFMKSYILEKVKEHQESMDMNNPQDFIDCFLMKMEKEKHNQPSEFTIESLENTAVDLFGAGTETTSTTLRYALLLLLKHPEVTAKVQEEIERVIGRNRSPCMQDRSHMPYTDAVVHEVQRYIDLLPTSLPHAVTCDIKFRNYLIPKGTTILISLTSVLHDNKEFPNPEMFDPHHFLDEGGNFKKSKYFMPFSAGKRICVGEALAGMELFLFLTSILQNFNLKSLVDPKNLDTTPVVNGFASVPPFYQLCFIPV
Chain of CYP2D6 (P10635 whole entry): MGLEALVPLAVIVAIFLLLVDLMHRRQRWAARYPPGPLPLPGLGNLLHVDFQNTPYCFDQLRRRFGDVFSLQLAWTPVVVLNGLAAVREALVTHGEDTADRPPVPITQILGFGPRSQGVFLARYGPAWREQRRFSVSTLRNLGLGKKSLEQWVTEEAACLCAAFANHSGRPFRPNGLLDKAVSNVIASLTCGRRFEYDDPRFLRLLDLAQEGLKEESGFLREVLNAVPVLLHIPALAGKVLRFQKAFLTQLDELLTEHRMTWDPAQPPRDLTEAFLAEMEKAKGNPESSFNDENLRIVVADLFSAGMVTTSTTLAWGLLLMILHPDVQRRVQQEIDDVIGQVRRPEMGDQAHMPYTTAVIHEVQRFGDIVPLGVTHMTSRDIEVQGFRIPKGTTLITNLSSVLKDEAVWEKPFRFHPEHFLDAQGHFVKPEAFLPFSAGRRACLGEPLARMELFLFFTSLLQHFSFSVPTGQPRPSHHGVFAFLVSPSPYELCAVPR
Chain of CYP2C19 (P33261 whole entry): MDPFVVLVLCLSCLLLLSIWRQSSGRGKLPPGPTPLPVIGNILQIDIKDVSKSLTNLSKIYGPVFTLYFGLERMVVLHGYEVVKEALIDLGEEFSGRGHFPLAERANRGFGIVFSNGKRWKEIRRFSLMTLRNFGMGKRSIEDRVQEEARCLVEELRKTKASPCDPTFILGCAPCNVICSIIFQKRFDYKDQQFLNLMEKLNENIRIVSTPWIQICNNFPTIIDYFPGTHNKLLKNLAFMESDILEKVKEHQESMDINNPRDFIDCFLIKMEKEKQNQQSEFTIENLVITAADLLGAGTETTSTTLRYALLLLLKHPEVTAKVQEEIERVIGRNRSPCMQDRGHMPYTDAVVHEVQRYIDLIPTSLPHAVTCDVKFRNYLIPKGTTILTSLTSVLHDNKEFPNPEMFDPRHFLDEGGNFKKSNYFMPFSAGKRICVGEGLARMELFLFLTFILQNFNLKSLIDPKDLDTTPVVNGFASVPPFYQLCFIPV

Structure (SMILES)	IC50 [10]	inhibition at 10 µM [11]	other results
CN(C)CCOc1ccc(/C(=C(/CCCO)c2ccccc2)c2ccc(O)cc2)cc1 [Compound 4, GSK5182, reference compound]			MS (%), Mouse (percent of parent compound remaining) [1]: less than 10%; MS (%), Rat (percent of parent compound remaining) [2]: 26%; CYP Inhibition (% of Control), 1A2 [3]: 84 % of Control; MS (%), Dog (percent of parent compound remaining) [4]: less than 10%; CYP Inhibition (% of Control), 2D6 [5]: 82 % of Control; MS (%), Human (percent of parent compound remaining) [6]: 43%; CYP Inhibition (% of Control), 3A4 [7]: 83 % of Control; CYP Inhibition (% of Control), 2C9 [8]: 73 % of Control; CYP Inhibition (% of Control), 2C19 [9]: 78 % of Control
COCCC/C(=C(\c1ccc(O)cc1)c1ccc(OCCN(C)C)cc1)c1cccnc1 [Compound 13a, (Z)-4-(1-(4-(2-(Dimethylamino)ethoxy)phenyl)-5-methoxy-2-(pyridin-3-yl)pent-1-en-1-yl)phenol]	0.99 µM		ERRγ functional activity in the cellular system (in words) [11]: comparable regression of the ERRγ transcriptional activity
COCCC/C(=C(\c1ccc(O)cc1)c1ccc(OCCN(C)C)cc1)c1ccncc1 [Compound 13b, (Z)-4-(1-(4-(2-(Dimethylamino)ethoxy)phenyl)-5-methoxy-2-(pyridin-4-yl)pent-1-en-1-yl)phenol]	> 10 µM	~50%	
COCCC/C(=C(\c1ccc(O)cc1)c1ccc(OCCN(C)C)cc1)c1cnn(C)c1 [Compound 13c, (Z)-4-(1-(4-(2-(Dimethylamino)ethoxy)phenyl)-5-methoxy-2-(1-methyl-1H-pyrazol-4-yl)pent-1-en-1-yl)-phenol]	> 10 µM	~50%	
CN(C)CCOc1ccc(/C(=C/CCCO)c2ccc(O)cc2)cc1 [Compound 15a, (E)-4-(1-(4-(2-(Dimethylamino)ethoxy)phenyl)-5-hydroxypent-1-en-1-yl)phenol]	> 10 µM	~0%	
CN(C)CCOc1ccc(/C(=C(/CCCO)c2ccc(O)cc2)c2ccc(O)cc2)cc1 [Compound 15b, (Z)-4,4′-(1-(4-(2-(Dimethylamino)ethoxy)phenyl)-5-hydroxypent-1-ene-1,2-diyl)diphenol]	2.32 µM		
COc1ccc(/C(CCCO)=C(/c2ccc(O)cc2)c2ccc(OCCN(C)C)cc2)cn1 [Compound 15c, (Z)-4-(1-(4-(2-(Dimethylamino)ethoxy)phenyl)-5-hydroxy-2-(6-methoxypyridin-3-yl)pent-1-en-1-yl)phenol]	> 10 µM	~50%	
CN(C)CCOc1ccc(/C(=C(/CCCO)c2cccnc2)c2ccc(O)cc2)cc1 [Compound 15d, (Z)-4-(1-(4-(2-(Dimethylamino)ethoxy)phenyl)-5-hydroxy-2-(pyridin-3-yl)pent-1-en-1-yl)phenol]	3.1 µM		
CN(C)CCOc1ccc(/C(=C(/CCCO)c2ccnc(F)c2)c2ccc(O)cc2)cc1 [Compound 15e, (Z)-4-(1-(4-(2-(Dimethylamino)ethoxy)phenyl)-2-(2-fluoropyridin-4-yl)-5-hydroxypent-1-en-1-yl)phenol]	5.35 µM		ERRγ functional activity in the cellular system (in words) [11]: comparable regression of the ERRγ transcriptional activity
CN(C)CCOc1ccc(/C(=C(/CCCO)c2ccc(N3CCOCC3)nc2)c2ccc(O)cc2)cc1 [Compound 15f, (Z)-4-(1-(4-(2-(Dimethylamino)ethoxy)phenyl)-5-hydroxy-2-(6-morpholinopyridin-3-yl)pent-1-en-1-yl)phenol]	> 10 µM		ERRγ functional activity in the cellular system (in words) [11]: partial agonistic activity
CN(C)CCOc1ccc(/C(=C(/CCCO)c2ccc3nccn3c2)c2ccc(O)cc2)cc1 [Compound 15i, (Z)-4-(1-(4-(2-(Dimethylamino)ethoxy)phenyl)-5-hydroxy-2-(imidazo[1,2-a]pyridin-6-yl)pent-1-en-1-yl)phenol]	> 10 µM	~0%	
CN(C)CCOc1ccc(/C(=C(/CCCO)c2ccc3ccncc3c2)c2ccc(O)cc2)cc1 [Compound 15j, (Z)-4-(1-(4-(2-(Dimethylamino)ethoxy)phenyl)-5-hydroxy-2-(isoquinolin-7-yl)pent-1-en-1-yl)phenol]	4.71 µM		
COCCC/C(=C(\c1ccc(O)cc1)c1ccc(OCCN(C)C)c(C(F)(F)F)c1)c1cccnc1 [Compound 16]	> 10 µM	~0%	ERRγ, IC50 (binding inhibition of ERRγ binding activity) [10]: no affinity
COCCC/C(=C(\c1ccc(O)cc1)c1ccc(OCCN(C)C)cc1)c1ccc(C(C)C)nc1 [Compound 17, (Z)-4-(1-(4-(2-(Dimethylamino)ethoxy)phenyl)-2-(6-isopropylpyridin-3-yl)-5-methoxypent-1-en-1-yl)phenol]	> 10 µM	~50%	
